Test results reported in article PMC5538626, “Structural and functional analysis of the GABARAP interaction motif (GIM)” (EMBO Reports, 2017).
Entries after “also recorded” stand apart in the source; their conditions may differ. Ends that are not written are not given here.

Experiments:
LC3B = conditions: p62 LIR with LC3B; no method, no reference given; cited from earlier work
Description: Finally, we wanted to apply and subsequently verify our findings by targeted mutation of established autophagy players: p62, FUNDC1 and FIP200. Due to their impact, we specifically substituted existing residues at positions X1 and Γ of LIRs either singly or in combination to valine, thus driving the LIR sequences towards our GIM consensus sequence (Fig 1).

[1] = tested on: 6xHis-tagged LC3B and 6xHis-tagged GABARAP; test: Peptide array, preference GABARAP versus LC3B (absorbance ratio); format: binding, human; conditions: absorbance GABARAP/LC3B or LC3B/GABARAP, cut-off 1.5-fold; mean of n = 3; Figs 1A, EV1B and C
Description: A high number of autophagy receptors or adaptor structures have been reported, yet the basis for their selective interaction with individual members of the ATG8 family is not well understood. We speculated whether the LIR motif alone is able to confer selectivity towards a mATG8 subfamily and whether we could derive a subfamily consensus motif from analysis of known mATG8 interaction partners. To address this question, we screened an array of peptides (presented in Fig EV1A and described in Materials and Methods) with the LIR sequences of 30 known and validated autophagy receptors and adaptors (Table 1) against all six human mATG8s for binding (Figs 1A and EV1B and C). In brief, biotinylated peptides were immobilized on streptavidin‐coated 96‐well plates and incubated with His6‐tagged mATG8 proteins. After washing steps, peptide‐bound mATG8 was detected in an ELISA reader using anti‐His antibodies directly conjugated to HRP (horse radish peroxidase; Fig EV1A).
Dashed red line depicts 1.5‐fold change cut‐off.
Due to the wide range of affinities of various LIR sequences towards the LC3/GABARAP proteins, we have normalized our results by dividing values for LC3B interaction by the corresponding value for interaction with GABARAP (Fig 1A, purple bars) and vice versa (Fig 1A, blue bars) to highlight the potential subfamily selectivity of each LIR sequence tested. We classified ratios greater than 1.5‐fold as an indication of a preferential interaction towards that particular LC3 or GABARAP family member. […] Using this information, we generated a sequence plot (Fig 1B) to ascertain whether there were any common sequence features of the GABARAP‐specific interaction proteins. In addition to the 12 sequences identified in this experiment as preferential GABARAP subfamily interactors, we also included known GABARAP interactors that were not included in our screen (ALFY and KBTBD7). […] The previously identified PLEKHM1‐LIR 19 has a high degree of similarity to this sequence. […] However, it is unclear whether this is the case in vivo.
Biotinylated peptides (JPT, Germany) were immobilized on streptavidin‐coated 96‐well plates (#436014; Thermo Scientific) in 100 μl PBS containing 0.1% Tween‐20 (PT) and 1% BSA (PTB) overnight on a shaker at 8°C. After three washing steps with 200 μl PT, 100 μl of 1 μM HIS6‐tagged mATG fusion proteins isolated from E. coli in PTB was incubated with the immobilized peptides for 1 h at 8°C. After three washing steps with 200 μl PT, HIS6‐ATG8 bound to peptides was detected after 1‐h incubation with anti‐HIS‐HRP antibody (JP‐A00612; Genscript; 1:5,000 in 100 μl PTB) with the help of TMB substrate Reagent Set (BD OptEIA; 75 μl). The reaction (blue coloration) was stopped by addition of 60 μl 1 M H3PO4. Samples were analysed on a Synergy H1 ELISA reader from BioTek at 450 nm.

all six mATG8 proteins = test: Peptide array (ELISA), all six mATG8s; conditions: 450 nm, Fig 3E, n = 4
all LC3s = conditions: GST pull-down; cited from earlier work
Description: Due to the wide range of affinities of various LIR sequences towards the LC3/GABARAP proteins, we have normalized our results by dividing values for LC3B interaction by the corresponding value for interaction with GABARAP (Fig 1A, purple bars) and vice versa (Fig 1A, blue bars) to highlight the potential subfamily selectivity of each LIR sequence tested. We classified ratios greater than 1.5‐fold as an indication of a preferential interaction towards that particular LC3 or GABARAP family member.

endogenous GABARAP [2] = test: Co-immunoprecipitation of 3xFlag-FIP200 with endogenous GABARAP, HEK293 cells; format: cell-based; conditions: HEK293, anti-Flag beads, Western blot; Fig 5B
Protocol: Blots were probed for the presence of endogenous GABARAP and LC3B proteins. • 3xFlag‐FIP200 WT, E703V, I705V, E703V/I705V and F702A/I705A were overexpressed in HEK293 cells and immunoprecipitated using anti‐Flag beads and subjected to SDS–PAGE and Western blotting. Blots were probed for the presence of endogenous GABARAP and LC3B proteins. • GFP‐FUNDC1 WT, E19V, L21V, E19V/L21V and Y18A/L21A were overexpressed in HEK293 cells and either treated with vehicle only (DMSO) or 20 μM CCCP for 2 h, lysed and GFP‐FUNDC1 immunoprecipitated using anti‐GFP beads (or anti‐RFP beads as control) and subjected to SDS–PAGE and Western blotting. Blots were probed for the presence of endogenous GABARAP and LC3B proteins.

endogenous LC3B = test: Co-immunoprecipitation of GFP-mCherry-p62/SQSTM1 with endogenous LC3B, HEK293 cells; format: cell-based; conditions: HEK293, basal conditions, anti-RFP beads, Western blot; Fig 5A
endogenous GABARAP [3] = test: Co-immunoprecipitation of GFP-mCherry-p62/SQSTM1 with endogenous GABARAP, HEK293 cells; format: cell-based; conditions: HEK293, basal conditions, anti-RFP beads, Western blot; Fig 5A
[4] = tested on: GABARAP family (GABARAP, GABARAP-L1, GABARAP-L2); test: Peptide array (ELISA), GABARAP family; conditions: fold change over WT, n = 3, Fig EV5A
6xHis-tagged LC3A = test: Peptide array (ELISA), LC3A; conditions: fold change over WT, mean ± SEM n = 3, Fig EV5A
6xHis-tagged LC3C = test: Peptide array (ELISA), LC3C; conditions: fold change over WT, n = 3, Fig EV5A
6xHis-tagged LC3B = test: Peptide array (ELISA), LC3B; conditions: fold change over WT, n = 3, Fig EV5A
GFP-LC3/GABARAPs = test: Co-immunoprecipitation of endogenous proteins with GFP-mATG8s in HeLa cells; conditions: 4 h KU-0063794 (10 μM) + chloroquine (20 μM), Fig 2C

In the case of “DDDWTHLSS [p62/SQSTM1, LIR peptide 335–343, peptide array]”, the Kd (LC3B) is given as roughly 1500 nM and the “preference GABARAP versus LC3B” value [1] is given as “slight preference for GABARAP”.

In the case of “EDEWVNVQY [PLEKHM1, LIR peptide 632–640, peptide array]”, the “preference GABARAP versus LC3B” value [1] is listed as “clear preference for binding to GABARAP and GABARAP‐L2 over LC3B and LC3C; also recorded: strong preference for GABARAP versus LC3”, the “ranking of mATG8 binding” value (all six mATG8 proteins) is listed as “shows the most potent interaction, followed by GABARAP‐L1, ‐L2, LC3C and LC3A, with LC3B as the weakest interactor” and the “interaction with LC3s” value (all LC3s) is listed as “can interact with all LC3s”.

With FVTV: 3xFlag-FIP200 E703V/I705V the “interaction of FIP200 with endogenous GABARAP” value (endogenous GABARAP [2]) was “enhance the interaction between FIP200 (LIR sequence FDFETIPH) and GABARAP”.

In the case of L341V: GFP-mCherry-p62/SQSTM1 L341V, the “interaction of p62/SQSTM1 with endogenous LC3B” value (endogenous LC3B) is reported as “little effect on LC3/GABARAP‐specific interaction” and the “interaction of p62/SQSTM1 with endogenous GABARAP” value (endogenous GABARAP [3]) is reported as “mild effect; also recorded: little effect on LC3/GABARAP‐specific interaction”.

In the case of “V638I: PLEKHM1-LIR array peptide V638I (EDEWVNIQY; also: biotin, position not given here)”, the “interaction with GABARAP family, Θ and Γ mutants” value [4] is reported as “small decrease in the interaction”, the “interaction with LC3A, Θ and Γ mutants” value (6xHis-tagged LC3A) is reported as “did not affect” and the “interaction with LC3C, Θ and Γ mutants” value (6xHis-tagged LC3C) is reported as “did not affect”. For the same substance, the “interaction with LC3B, Θ and Γ mutants” value (6xHis-tagged LC3B) was “increase the affinity”.

For “V638L: PLEKHM1-LIR array peptide V638L (EDEWVNLQY; also: biotin, position not given here)”, the “interaction with GABARAP family, Θ and Γ mutants” value [4] was “small decrease in the interaction”, the “interaction with LC3A, Θ and Γ mutants” value (6xHis-tagged LC3A) was “did not affect” and the “interaction with LC3C, Θ and Γ mutants” value (6xHis-tagged LC3C) was “did not affect”. For the same substance, the “interaction with LC3B, Θ and Γ mutants” value (6xHis-tagged LC3B) was “increase the affinity”.

For “endogenous p62/SQSTM1: endogenous p62/SQSTM1 protein in HeLa cells”, the “co-precipitation of endogenous protein with GFP-mATG8s” value (GFP-LC3/GABARAPs) was “co‐precipitated with all LC3/GABARAP to a similar extent”.
